{"source": "patent US20260293901A1", "about": "(priority 2023, published 2026)", "key": {"Plasmopara viticola": {"tested_on": "Plasmopara viticola", "format": "in vivo", "details": "200 ppm; grape vine leaf disks, preventative; inoculated 1 day after application; assessed 6-8 days after application"}, "Phytophthora infestans": {"tested_on": "Phytophthora infestans", "format": "in vivo", "details": "200 ppm; tomato leaf disks, preventative; inoculated 1 day after application; assessed 5-7 days after application"}, "Pythium ultimum": {"tested_on": "Pythium ultimum", "test": "Pythium ultimum/Liquid Culture (Seedling Damping Off)", "format": "cell-based", "details": "Globisporangium ultimum, read-out: control of Pythium ultimum (inhibition of growth determined photometrically)"}}}
{"smiles": "COC(=O)Nc1ccc(-c2cnc3c(C)cc(C(=O)N(C)c4ccc(F)c(C)c4)nn23)cn1", "note": "[Compound 1, methyl N-[5-[6-[(4-fluoro-3-methyl-phenyl)-methyl-carbamoyl]-8-methyl-imidazo[1,2-b]pyridazin-3-yl]-2-pyridyl]carbamate]", "values": [{"measurement": "control of Plasmopara viticola (percent disease control compared to untreated)", "setting": "Plasmopara viticola", "result": "at least 80%"}]}
{"smiles": "COC(=O)Nc1ccc(-c2cnc3c(C)cc(C(=O)N4CCCc5cc(F)ccc54)nn23)cn1", "note": "[Compound 2, methyl N-[5-[6-(6-fluoro-3,4-dihydro-2H-quinoline-1-carbonyl)-8-methyl-imidazo[1,2-b]pyridazin-3-yl]-2-pyridyl]carbamate]", "values": [{"measurement": "control of Phytophthora infestans (percent disease control compared to untreated)", "setting": "Phytophthora infestans", "result": "at least 80%"}]}
{"smiles": "COC(=O)Nc1ccc(-c2cnc3c(C)cc(C(=O)N(C)c4ccc(F)cc4)nn23)cn1", "note": "[Compound 3, methyl N-[5-[6-[(4-fluorophenyl)-methyl-carbamoyl]-8-methyl-imidazo[1,2-b]pyridazin-3-yl]-2-pyridyl]carbamate]", "values": [{"measurement": "control of Phytophthora infestans (percent disease control compared to untreated)", "setting": "Phytophthora infestans", "result": "at least 80%"}, {"measurement": "control of Plasmopara viticola (percent disease control compared to untreated)", "setting": "Plasmopara viticola", "result": "at least 80%"}]}
{"smiles": "COC(=O)Nc1ccc(-c2cnc3c(C)cc(C(=O)N(C)c4ccc(F)c(OC)c4)nn23)cn1", "note": "[Compound 4, methyl N-[5-[6-[(4-fluoro-3-methoxy-phenyl)-methyl-carbamoyl]-8-methyl-imidazo[1,2-b]pyridazin-3-yl]-2-pyridyl]carbamate]", "values": [{"measurement": "control of Phytophthora infestans (percent disease control compared to untreated)", "setting": "Phytophthora infestans", "result": "at least 80%"}, {"measurement": "control of Plasmopara viticola (percent disease control compared to untreated)", "setting": "Plasmopara viticola", "result": "at least 80%"}, {"measurement": "inhibition at 20 ppm", "setting": "Pythium ultimum", "result": "≥ 80", "unit": "%"}]}
{"smiles": "COC(=O)Nc1ccc(-c2cnc3ccc(C(=O)N(C)c4ccc(F)c(OC)c4)nn23)cn1", "note": "[Compound 8, methyl N-[5-[6-[(4-fluoro-3-methoxy-phenyl)-methyl-carbamoyl]imidazo[1,2-b]pyridazin-3-yl]-2-pyridyl]carbamate]", "values": [{"measurement": "control of Phytophthora infestans (percent disease control compared to untreated)", "setting": "Phytophthora infestans", "result": "at least 80%"}, {"measurement": "control of Plasmopara viticola (percent disease control compared to untreated)", "setting": "Plasmopara viticola", "result": "at least 80%"}, {"measurement": "inhibition at 20 ppm", "setting": "Pythium ultimum", "result": "≥ 80", "unit": "%"}]}
